Laboratory results from the NIST ThermoML archive (doi:10.1016/j.tca.2017.07.015).
Numbers after ± are expanded uncertainties.

Experiments:
[1] = Molar enthalpy of transition or fusion; settings: Crystal; DSC
[2] = Crystal; DTA

Molar enthalpy of transition or fusion [1]: 3.39 ± 0.335 kcal/mol
Normal melting temperature [2]: 29.70 ± 0.5 °C
SMILES: ON=Cc1ccccc1 [benzaldehyde oxime]
